For this experiment, the target named is T1, hP2X3 (human Purinergic P2X receptors subtype 3), clone B (Homo sapiens, UniProt P56373).
T1 sequence (P56373 1-397): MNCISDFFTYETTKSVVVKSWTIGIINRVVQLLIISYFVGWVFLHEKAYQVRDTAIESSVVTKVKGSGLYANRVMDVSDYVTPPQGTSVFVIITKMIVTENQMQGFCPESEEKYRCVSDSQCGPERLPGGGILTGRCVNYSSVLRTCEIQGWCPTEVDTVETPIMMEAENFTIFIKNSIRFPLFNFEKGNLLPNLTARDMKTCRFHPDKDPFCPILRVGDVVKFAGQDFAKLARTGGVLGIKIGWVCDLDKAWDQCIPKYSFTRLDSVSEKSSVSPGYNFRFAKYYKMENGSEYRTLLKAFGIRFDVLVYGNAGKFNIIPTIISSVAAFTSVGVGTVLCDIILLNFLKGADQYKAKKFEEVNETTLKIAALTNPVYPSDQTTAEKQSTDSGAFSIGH
In words: hP2X3 FLIPR calcium (Fluo-4) antagonist assay, clone B. Particulars: Human P2X3 FLIPR Clone B IC50 (nM), RLE cells expressing hP2X3 clone B (NM_002559); agonist 500 nM α,β-methylene-ATP.

Regarding `CC(=O)N1CCN(c2nc3c(c(N(C)Cc4ccc5ncccc5c4)n2)CN(C(C)C)C3=O)CC1` [Example 239, 2-(4-acetylpiperazin-1-yl)-6-isopropyl-4-(methyl(quinolin-6-ylmethyl)amino)-5H-pyrrolo[3,4-d]pyrimidin-7(6H)-one], the IC50 turned out to be 1200 nM. For `CC(=O)N1CCN(c2nc3c(c(N(C)Cc4cc5ccccc5nc4C)n2)CN(C(C)C)C3=O)CC1` [Example 347, 2-(4-acetylpiperazin-1-yl)-6-isopropyl-4-(methyl((2-methylquinolin-3-yl)methyl)amino)-5H-pyrrolo[3,4-d]pyrimidin-7(6H)-one], the IC50 was determined as 2900 nM.

Take `CC(=O)N1CCN(c2nc(NCc3n[nH]c4c3CCC4)c3c(n2)C(=O)N(C(C)C)C3)CC1` [Example 151, 4-(4-acetylpiperazin-1-yl)-2-(6,7-diazabicyclo[3.3.0]octa-7,9-dien-8-ylmethylamino)-8-propan-2-yl-3,5,8-triazabicyclo[4.3.0]nona-1,3,5-trien-7-one]: the IC50 was 940 nM. With `COc1ccc(CNc2nc(N3CCN(C(C)=O)CC3)nc3c2CN(C(C)C)C3=O)c2cccnc12` [Example 240, 2-(4-acetylpiperazin-1-yl)-6-isopropyl-4-((8-methoxyquinolin-5-yl)methylamino)-5H-pyrrolo[3,4-d]pyrimidin-7(6H)-one] the figure was 1500 nM. To `CC(=O)N1CCN(c2nc(NCc3cc(C(C)(C)C)[nH]n3)c3c(n2)C(=O)N(C(C)C)C3)CC1` [Example 143, 4-(4-acetylpiperazin-1-yl)-8-propan-2-yl-2-[(5-tert-butyl-1H-pyrazol-3-yl)methylamino]-3,5,8-triazabicyclo[4.3.0]nona-1,3,5-trien-7-one] belongs 160 nM. To `CC(=O)N1CCN(c2nc(NCc3cn(C4CCCC4)nc3C)c3c(n2)C(=O)N(C(C)C)C3)CC1` [Example 152, 4-(4-acetylpiperazin-1-yl)-2-[(1-cyclopentyl-3-methyl-pyrazol-4-yl)methylamino]-8-propan-2-yl-3,5,8-triazabicyclo[4.3.0]nona-2,4,10-trien-7-one] belongs 270 nM. For `COCC(C)N1Cc2c(NC(C)(C)Cc3ccc(F)cc3)nc(N3CCN(C(C)=O)CC3)nc2C1=O` (stereo not drawn) [Example 314, 2-(4-acetylpiperazin-1-yl)-4-(1-(4-fluorophenyl)-2-methylpropan-2-ylamino)-6-(1-methoxypropan-2-yl)-5H-pyrrolo[3,4-d]pyrimidin-7(6H)-one], the IC50 is 670 nM.

`CC(=O)NC1CCN(c2nc(NC(C)(C)Cc3ccc(Cl)cc3)c3c(n2)C(=O)N(C(C)C)C3)C1` (stereo not drawn) [Example 62, N-[1-(4-{[2-(4-chlorophenyl)-1,1-dimethylethyl]amino}-6-isopropyl-7-oxo-6,7-dihydro-5H-pyrrolo[3,4-d]pyrimidin-2-yl)pyrrolidin-3-yl]acetamide]: the IC50 came out at 340 nM. `CC(=O)N1CCN(c2nc3c(c(N4CCCC4CCc4ccccc4)n2)CN(C(C)C)C3=O)CC1` (stereo not drawn) [Example 271, 4-(4-acetylpiperazin-1-yl)-2-(2-phenethylpyrrolidin-1-yl)-8-propan-2-yl-3,5,8-triazabicyclo[4.3.0]nona-1,3,5-trien-7-one]: the IC50 was 870 nM. In the case of `CC(C)N1Cc2c(NC(C)(C)Cc3ccc(Cl)cc3)nc(NCCN3CCCC3=O)nc2C1=O` [Example 70, 4-{[2-(4-chlorophenyl)-1,1-dimethylethyl]amino}-6-isopropyl-2-{[2-(2-oxopyrrolidin-1-yl)ethyl]amino}-5,6-dihydro-7H-pyrrolo[3,4-d]pyrimidin-7-one], the IC50 was 780 nM. With `CC(C)N1Cc2c(nc(NCCN(C)C)nc2N2CCCC2Cc2ccc(Cl)cc2)C1=O` (stereo not drawn) [Example 57, 4-[2-(4-chlorobenzyl)pyrrolidin-1-yl]-2-{[2-(dimethylamino)ethyl]amino}-6-isopropyl-5,6-dihydro-7H-pyrrolo[3,4-d]pyrimidin-7-one] the figure was 8500 nM; with `CC(=O)N1CCN(c2nc(NC(C)(C)Cc3ccc(F)cc3)c3c(n2)C(=O)N(C(C)C)C3)C(C)C1` (stereo not drawn) [Example 139, 2-(4-Acetyl-2-methyl-piperazin-1-yl)-4-[2-(4-fluoro-phenyl)-1,1-dimethyl-ethylamino]-6-isopropyl-5,6-dihydro-pyrrolo[3,4-d]pyrimidin-7-one], 1000 nM. Regarding `CC(=O)N1CCN(c2nc(NC(c3ccc(C(C)C)cc3)C(C)C)c3c(n2)C(=O)N(C(C)C)C3)CC1` (stereo not drawn) [Example 10, 2-(4-acetylpiperazin-1-yl)-6-isopropyl-4-{[1-(4-isopropylphenyl)-2-methylpropyl]amino}-5,6-dihydro-7H-pyrrolo[3,4-d]pyrimidin-7-one], the IC50 amounted to 1200 nM. On to `CC(=O)N1CCN(c2nc3c(c(N4CCCC4c4ccc(Cl)cc4)n2)CN(C(C)C)C3=O)CC1` (stereo not drawn) [Example 52, 2-(4-acetylpiperazin-1-yl)-4-[2-(4-chlorophenyl)pyrrolidin-1-yl]-6-isopropyl-5,6-dihydro-7H-pyrrolo[3,4-d]pyrimidin-7-one], for which the IC50 worked out at 720 nM. With `CC(=O)N1CCN(c2nc3c(c(N4CCCC4c4nc(-c5ccccc5)no4)n2)CN(C(C)C)C3=O)CC1` (stereo not drawn) [Example 280, 4-(4-acetylpiperazin-1-yl)-2-[2-(3-phenyl-1,2,4-oxadiazol-5-yl)pyrrolidin-1-yl]-8-propan-2-yl-3,5,8-triazabicyclo[4.3.0]nona-1,3,5-trien-7-one], the 50% inhibitory concentration (IC50) was 5100 nM. Consider `CC(C)N1Cc2c(NCc3cnc4ccccc4c3)nc(N3CCN(C)C(=O)C3)nc2C1=O` [Example 210, 6-isopropyl-2-(4-methyl-3-oxopiperazin-1-yl)-4-(quinolin-3-ylmethylamino)-5H-pyrrolo[3,4-d]pyrimidin-7(6H)-one], for which the IC50 was found to be 320 nM. To `CCN1CCN(c2nc(NC(c3ccccc3)c3ccccc3)c3c(n2)C(=O)N(C(C)C)C3)CC1` [Example 78, 4-(Benzhydryl-amino)-2-(4-ethyl-piperazin-1-yl)-6-isopropyl-5,6-dihydro-pyrrolo[3,4-d]pyrimidin-7-one] belongs 400 nM; to `CC(=O)N1CCN(c2nc(NC(C)c3ccc(C(C)C)cc3)c3c(n2)C(=O)N(C(C)C)C3)CC1` (stereo not drawn) [Example 40, 2-(4-acetylpiperazin-1-yl)-6-isopropyl-4-{[1-(4-isopropylphenyl)ethyl]amino}-5,6-dihydro-7H-pyrrolo[3,4-d]pyrimidin-7-one], 310 nM; to `CC(=O)N1CCN(c2nc(N[C@H](C)c3ccc4c(c3)CCC(C)(C)O4)c3c(n2)C(=O)N(C(C)C)C3)CC1` [Example 169, (R)-2-(4-acetylpiperazin-1-yl)-4-(1-(2,2-dimethylchroman-6-yl)ethylamino)-6-isopropyl-5H-pyrrolo[3,4-d]pyrimidin-7(6H)-one], 51 nM. With `CCCc1ccc(C(C)Nc2nc(N3CCN(C(C)=O)CC3)nc3c2CN(C(C)C)C3=O)cc1` (stereo not drawn) [Example 29, 2-(4-acetylpiperazin-1-yl)-6-isopropyl-4-{[1-(4-propylphenyl)ethyl]amino}-5,6-dihydro-7H-pyrrolo[3,4-d]pyrimidin-7-one] the figure was 160 nM; with `CC(C)N1Cc2c(NCc3cnc4ccccc4c3)nc(N3CCN(C(=O)N(C)C)CC3)nc2C1=O` [Example 221, N,N-dimethyl-4-{6-(1-methylethyl)-7-oxo-4-[(quinolin-3-ylmethyl)amino]-6,7-dihydro-5H-pyrrolo[3,4-d]pyrimidin-2-yl}piperazine-1-carboxamide], 5800 nM.

A word on the IC50: it is the concentration that inhibits the measured activity by half.

For the origin of these results see patent publication US20090099195A1 (ASTRAZENECA AB, priority 2007, published 2009).
